According to ChEMBL document CHEMBL1909046, “DrugMatrix in vitro pharmacology data”:
*1 amine or outer side, *2 acyl side, *3 side chain or, on linkers, in order; H or OH if unused. Where a SMILES comes first, the peptide text is derived from it. Bridges are numbered along the chain shown (N, C = ends). Roman numbers before positions name the chains, in order. [ ]: non-standard residue; d: D form. Actinocin(1to9) = Cc1c2oc3c(C)ccc(C(=O)[*:2])c3nc-2c(C(=O)[*:1])c(N)c1=O; NMeV = CN[C@H](C(=O)O)C(C)C; Sar = CNCC(=O)O

What was measured:
[1] = DRUGMATRIX: Tumor Necrosis Factor (TNF), Non-Selective radioligand binding (ligand: [125I] TNF-alpha); assay type: cell membranes, Membrane; conditions: u-937; Not Active = under 50% inhibition at 10 µM
[2] = molecular target: Beta-3 adrenergic receptor (Homo sapiens, UniProt P13945); experiment: DRUGMATRIX: Adrenergic beta3 radioligand binding (ligand: [125I] Cyanopindolol); assay type: cell membranes, HEK293, Membrane; conditions: Not Active = under 50% inhibition at 10 µM
Beta-3 adrenergic receptor, sequence (P13945 whole entry): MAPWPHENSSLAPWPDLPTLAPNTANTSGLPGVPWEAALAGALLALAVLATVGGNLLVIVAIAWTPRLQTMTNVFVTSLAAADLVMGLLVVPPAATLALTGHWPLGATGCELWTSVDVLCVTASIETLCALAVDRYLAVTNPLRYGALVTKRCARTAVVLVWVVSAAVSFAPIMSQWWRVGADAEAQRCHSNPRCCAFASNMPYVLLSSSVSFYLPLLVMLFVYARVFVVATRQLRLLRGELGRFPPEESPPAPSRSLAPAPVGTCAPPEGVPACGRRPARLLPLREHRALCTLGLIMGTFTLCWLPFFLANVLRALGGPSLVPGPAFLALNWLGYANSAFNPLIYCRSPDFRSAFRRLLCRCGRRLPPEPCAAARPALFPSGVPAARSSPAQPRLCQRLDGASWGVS

[3] = molecular target: 5-hydroxytryptamine receptor 6 (Homo sapiens, UniProt P50406); assay type: cell membranes, HeLa, Membrane; conditions: hela; further: in other assays of this panel Not Active means under 50% inhibition at 10 µM
5-hydroxytryptamine receptor 6, sequence (P50406 whole entry): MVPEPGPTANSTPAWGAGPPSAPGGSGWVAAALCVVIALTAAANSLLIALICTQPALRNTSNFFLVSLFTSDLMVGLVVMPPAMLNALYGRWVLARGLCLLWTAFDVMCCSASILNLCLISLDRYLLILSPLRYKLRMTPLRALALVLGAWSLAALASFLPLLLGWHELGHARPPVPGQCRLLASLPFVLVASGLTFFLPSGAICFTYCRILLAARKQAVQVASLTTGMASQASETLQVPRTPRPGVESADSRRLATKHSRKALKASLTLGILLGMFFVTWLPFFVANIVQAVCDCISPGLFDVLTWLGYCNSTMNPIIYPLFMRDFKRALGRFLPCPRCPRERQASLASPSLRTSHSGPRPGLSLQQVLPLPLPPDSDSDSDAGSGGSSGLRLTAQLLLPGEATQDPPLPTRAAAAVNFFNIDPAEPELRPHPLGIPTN

[4] = molecular target: T1, Alpha-1D adrenergic receptor (Homo sapiens, UniProt P25100); assay type: cell membranes, HEK293, Membrane; further: in other assays of this panel Not Active means under 50% inhibition at 10 µM
T1 sequence (P25100 whole entry): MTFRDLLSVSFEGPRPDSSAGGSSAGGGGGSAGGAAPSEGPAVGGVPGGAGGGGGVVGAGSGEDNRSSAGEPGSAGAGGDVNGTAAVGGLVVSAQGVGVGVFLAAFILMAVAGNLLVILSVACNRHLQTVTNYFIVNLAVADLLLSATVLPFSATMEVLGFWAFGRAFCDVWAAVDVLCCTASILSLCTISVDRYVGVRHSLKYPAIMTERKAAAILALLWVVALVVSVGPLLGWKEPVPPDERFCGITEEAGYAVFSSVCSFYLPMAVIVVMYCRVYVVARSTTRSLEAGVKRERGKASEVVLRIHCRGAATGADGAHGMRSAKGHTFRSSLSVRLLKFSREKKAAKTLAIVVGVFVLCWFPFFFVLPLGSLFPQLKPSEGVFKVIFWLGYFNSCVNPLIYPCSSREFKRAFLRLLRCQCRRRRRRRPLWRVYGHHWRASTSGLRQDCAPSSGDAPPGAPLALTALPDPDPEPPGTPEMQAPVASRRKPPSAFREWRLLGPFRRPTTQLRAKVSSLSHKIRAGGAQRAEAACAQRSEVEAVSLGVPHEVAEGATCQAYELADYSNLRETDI

[5] = molecular target: T2, 5-hydroxytryptamine receptor 1A (Rattus norvegicus, UniProt P19327); assay type: cell membranes, CHO-K1, Membrane; conditions: for Ki: read-out: Ki; on all read-outs here: in other assays of this panel Not Active means under 50% inhibition at 10 µM
T2 sequence (P19327 whole entry): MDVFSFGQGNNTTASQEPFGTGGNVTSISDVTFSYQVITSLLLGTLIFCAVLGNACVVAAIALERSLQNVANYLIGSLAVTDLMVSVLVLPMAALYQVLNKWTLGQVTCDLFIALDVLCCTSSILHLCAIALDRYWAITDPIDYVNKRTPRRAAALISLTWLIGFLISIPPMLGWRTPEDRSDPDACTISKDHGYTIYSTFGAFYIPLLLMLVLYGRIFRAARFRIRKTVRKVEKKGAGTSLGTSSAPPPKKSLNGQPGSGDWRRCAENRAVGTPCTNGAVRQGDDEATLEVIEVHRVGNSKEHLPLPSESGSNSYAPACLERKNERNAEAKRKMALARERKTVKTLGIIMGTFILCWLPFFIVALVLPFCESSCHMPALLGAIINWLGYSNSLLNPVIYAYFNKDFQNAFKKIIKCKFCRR

[6] = molecular target: T3, Nitric oxide synthase, inducible (Mus musculus, UniProt P29477); set-up: species or system Escherichia coli;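 further: inhibition of iNOS enzyme activity measured with L-arginine as substrate; in other assays of this panel Not Active means under 50% inhibition at 10 µM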
T3 sequence (P29477 whole entry): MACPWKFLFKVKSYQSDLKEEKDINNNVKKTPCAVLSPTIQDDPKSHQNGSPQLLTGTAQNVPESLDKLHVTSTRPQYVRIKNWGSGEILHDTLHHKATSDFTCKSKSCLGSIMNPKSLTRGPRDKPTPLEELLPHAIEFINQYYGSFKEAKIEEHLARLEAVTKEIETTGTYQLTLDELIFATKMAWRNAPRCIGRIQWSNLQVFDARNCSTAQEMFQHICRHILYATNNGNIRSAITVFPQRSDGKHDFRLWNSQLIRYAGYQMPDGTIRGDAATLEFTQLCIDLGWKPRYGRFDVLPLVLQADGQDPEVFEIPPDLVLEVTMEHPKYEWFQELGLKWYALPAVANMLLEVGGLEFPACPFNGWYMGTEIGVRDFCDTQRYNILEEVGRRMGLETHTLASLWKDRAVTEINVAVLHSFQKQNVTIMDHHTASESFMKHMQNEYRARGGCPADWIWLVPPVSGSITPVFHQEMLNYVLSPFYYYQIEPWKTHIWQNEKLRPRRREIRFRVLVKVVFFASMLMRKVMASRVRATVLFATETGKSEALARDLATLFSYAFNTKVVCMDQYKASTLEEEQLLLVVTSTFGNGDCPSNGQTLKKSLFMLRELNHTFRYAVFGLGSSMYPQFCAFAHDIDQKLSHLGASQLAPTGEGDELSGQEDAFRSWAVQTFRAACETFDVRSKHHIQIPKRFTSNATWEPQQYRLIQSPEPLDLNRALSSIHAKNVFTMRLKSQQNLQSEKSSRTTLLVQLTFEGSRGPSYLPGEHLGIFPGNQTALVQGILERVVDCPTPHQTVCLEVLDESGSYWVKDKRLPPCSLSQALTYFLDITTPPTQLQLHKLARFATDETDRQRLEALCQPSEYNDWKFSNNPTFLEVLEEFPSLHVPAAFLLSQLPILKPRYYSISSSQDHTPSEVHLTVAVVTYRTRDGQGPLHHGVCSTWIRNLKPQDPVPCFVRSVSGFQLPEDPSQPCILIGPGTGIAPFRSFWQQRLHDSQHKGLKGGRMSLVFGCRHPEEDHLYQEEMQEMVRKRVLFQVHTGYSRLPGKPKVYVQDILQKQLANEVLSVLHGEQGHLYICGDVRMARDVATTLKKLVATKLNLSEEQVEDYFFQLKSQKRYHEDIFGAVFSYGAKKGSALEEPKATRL

SMILES	IC50 [1]	Ki [1]	IC50 ([2]; hek293)	IC50 [3]	IC50 ([4]; hek293)	IC50 ([5]; cho-k1)	IC50 [6]	IC50 ([2]; read-out: IC50) [nM]	Ki ([2]; read-out: Ki) [nM]	IC50 ([5]; read-out: IC50) [nM]	Ki [5] [nM]	IC50 ([4]; read-out: IC50) [nM]	Ki ([4]; read-out: Ki) [nM]
CC(C)C(Br)C(=O)NC(N)=O (stereo unspecified) [BROMISOVALUM]	Not Active	Not Active	Not Active	Not Active	Not Active	Not Active	Not Active						
CCCC1O[C@@H]2C[C@H]3[C@@H]4CCC5=CC(=O)C=C[C@]5(C)[C@H]4[C@@H](O)C[C@]3(C)[C@]2(C(=O)CO)O1 (stereo partly specified) [BUDESONIDE]	Not Active	Not Active	Not Active	Not Active	Not Active	Not Active	Not Active						
CC(NC(C)(C)C)C(=O)c1cccc(Cl)c1 (stereo unspecified) [BUPROPION]	Not Active	Not Active	Not Active	Not Active	Not Active	Not Active	Not Active						
CN(Cc1ccc(C(C)(C)C)cc1)Cc1cccc2ccccc12 [BUTENAFINE]	Not Active	Not Active	Not Active	Not Active	Not Active	Not Active	Not Active						
C[C@H](CS)C(=O)N1CCC[C@H]1C(=O)O [CAPTOPRIL]	Not Active	Not Active	Not Active	Not Active	Not Active	Not Active	Not Active						
Cc1ccc(-c2cc(C(F)(F)F)nn2-c2ccc(S(N)(=O)=O)cc2)cc1 [CELECOXIB]	Not Active	Not Active		Not Active	Not Active	Not Active	Not Active	16100	12100				
O=C(O)CCCc1ccc(N(CCCl)CCCl)cc1 [CHLORAMBUCIL]	Not Active	Not Active	Not Active	Not Active	Not Active	Not Active	Not Active						
C[C@H](CCC(=O)O)[C@H]1CC[C@H]2[C@@H]3[C@H](O)C[C@@H]4C[C@H](O)CC[C@]4(C)[C@H]3C[C@H](O)[C@]12C [CHOLIC ACID]	Not Active	Not Active	Not Active	Not Active	Not Active	Not Active	Not Active						
Cc1cc(C2CCCCC2)n(O)c(=O)c1 [CICLOPIROX]	Not Active	Not Active	Not Active	Not Active	Not Active	Not Active	Not Active						
CC1=C2C(=CO[C@H](C)[C@H]2C)C(O)=C(C(=O)O)C1=O [CITRININ]	Not Active	Not Active	Not Active	Not Active	Not Active	Not Active	Not Active						
CC(C)(C)NCC(O)c1cc(Cl)c(N)c(Cl)c1 (stereo unspecified) [CLENBUTEROL]	Not Active	Not Active	Not Active	Not Active	Not Active		Not Active			2650	1520		
CC(C)(Oc1ccc(Cl)cc1)C(=O)O [CLOFIBRIC ACID]	Not Active	Not Active	Not Active	Not Active	Not Active	Not Active	Not Active						
Clc1cccc(Cl)c1NC1=NCCN1 [CLONIDINE]	Not Active	Not Active	Not Active	Not Active			Not Active			5360	3070	1210	595
Cc1cc(C(C#N)c2ccc(Cl)cc2)c(Cl)cc1NC(=O)c1cc(I)cc(I)c1O (stereo unspecified) [CLOSANTEL]	Not Active	Not Active	Not Active	Not Active	Not Active	Not Active	Not Active						
Cc1onc(-c2ccccc2Cl)c1C(=O)N[C@@H]1C(=O)N2[C@@H]1SC(C)(C)[C@@H]2C(=O)O [CLOXACILLIN]	Not Active	Not Active	Not Active	Not Active	Not Active	Not Active	Not Active						
CC1CC(OC(=O)C(O)c2ccccc2)CC(C)(C)C1 (stereo unspecified) [CYCLANDELATE]	Not Active	Not Active	Not Active	Not Active	Not Active	Not Active	Not Active						
Cc1c2oc3c(C)ccc(C(=O)N[C@@H]4C(=O)N[C@H](C(C)C)C(=O)N5CCC[C@H]5C(=O)N(C)CC(=O)N(C)[C@@H](C(C)C)C(=O)O[C@@H]4C)c3nc-2c(C(=O)N[C@@H]2C(=O)N[C@H](C(C)C)C(=O)N3CCC[C@H]3C(=O)N(C)CC(=O)N(C)[C@@H](C(C)C)C(=O)O[C@@H]2C)c(N)c1=O [DACTINOMYCIN] (I: T[dV]P[Sar][NMeV] / II: T[dV]P[Sar][NMeV]; ester I:1-I:C, II:1-II:C; linker I:N-II:N via Actinocin(1to9))	Not Active	Not Active	Not Active	Not Active	Not Active	Not Active	Not Active						
Cc1c(O)c(=O)ccn1C [DEFERIPRONE]	Not Active	Not Active	Not Active	Not Active	Not Active	Not Active	Not Active						
CNCCCN1c2ccccc2CCc2ccccc21 [DESIPRAMINE]	Not Active	Not Active	Not Active	Not Active	Not Active	Not Active	Not Active						
O=c1oc2ccccc2c(O)c1Cc1c(O)c2ccccc2oc1=O [DICUMAROL]	Not Active	Not Active	Not Active	Not Active	Not Active	Not Active	Not Active						
C[C@H]1O[C@@H](O[C@H]2[C@@H](O)C[C@H](O[C@H]3[C@@H](O)C[C@H](O[C@H]4CC[C@@]5(C)[C@H](CC[C@@H]6[C@@H]5C[C@@H](O)[C@]5(C)[C@@H](C7=CC(=O)OC7)CC[C@]65O)C4)O[C@@H]3C)O[C@@H]2C)C[C@H](O)[C@@H]1O [DIGOXIN]	Not Active	Not Active	Not Active	Not Active	Not Active	Not Active	Not Active						
